Source: patent publication US4443448A, “Indane derivatives, pharmaceutical compositions thereof and method of preparation” (priority 1980, dated 1984)
Where two headings read alike, the source gives them in different places.

Experiments:
methylphenidate = assay: Methylphenidate antagonism in mice; format: in vivo; details: for ED50: Mus musculus, ip
Description: Methylphenidate antagonism (ED50 mg/kg i.p.)
(§1) Perspex observation cages without bottom and lid, consisting of 5 sections each measuring 12×25×30 cm.
3×2 mice are used for each dose level. Two or 24 hours after injection of test substance, methylphenidate, 60 mg/kg, is injected s.c. After administration of methylphenidate the mice are placed in the observation cages, 2 in each cage, where they remain for exactly 1 hour. The cages were placed on corrugated paper, the corrugations facing upwards. It is examined whether the mice have been biting the corrugated paper or not. […] If one or more of the control pairs have not been biting, the test has to be repeated on a new set of mice.
The result is stated in fractions: 0/3, 1/3, 2/3 and 3/3 where 0, 1, 2 and 3 are the number of pairs which have not been biting on receipt of the dose in question.

amphetamine = assay: Amphetamine antagonism in rats; format: in vivo; details: Rattus norvegicus, po, read-out: Amphetamine antag. ED50 p.o.
Description: Amphetamine antagonism (ED50 mg/kg i.p.)
as §1
The test substance is given p.o. in a reasonable dose based on the determined LD50. Two or 24 hours later an intravaneous injection of amphetamine sulphate 13.6 mg/kg (10 mg/kg amphetamine base) is given, after which the rats are placed individually in the cages. The cages are placed on white corrugated paper. Five rats are used for each dose level. Observations are made after 55 minutes and 65 minutes-observation time: 1 minute. The animals are observed for stereotypy (movements of the head, compulsive gnawing). […] If the compound has full antagonistic effect another group of rats is used at a lower dose. […] The result is stated as fractions: 0/5, 1/5, 2/5, 3/5, 4/5 and 5/5, where 0, 1, 2, 3, 4 and 5 indicate the number of rats which have not shown stereotypy at the dose in question. The results are calculated as ED50 in mg/kg.

in vivo [1] = assay: in vivo; design: species or system rats; details: for Ratio catalep./Amphet.: catalepsy ED50 / amphetamine antagonism ED50; for ED50: rat, in vivo, po
Description: A vertical wire netting (50 cm×49 cm). The meshes (openings) of the netting are square (1 cm×1 cm). The wire diameter is 2 mm.
The animals are labeled and used in groups of five. The test substance is administered orally (p.o) at 4 dose levels selected from the fixed dose scale.
The animals are placed in the middle of the vertical wire netting 60, 120, 180, 240, 300 and 360 minutes after administration of the test compound. The animals are considered cataleptic when they remain immobile during a period of 15 seconds.
This cataleptic reaction is designated +. If the rats are "atonic" and passively slide down the wire mesh they are considered not cataleptic. If the animals climb up and down the wire mesh they are nor cataleptic.
In both situations the designation--is used.

in vivo [2] = assay: in vivo
[3] = Mouse grid shock (analgesia); format: in vivo; details: mice, minimal effective dose, in mg/kg
Description: The mouse grid consists of a perspex cage with wire grid bottom and a perspex lid, on which is placed a microphone sensitive to the frequency of a mouse squeak. A stimulator with motordriven potentiometer applies a sequence of square wave impulses of continuously increasing milliamperage to the grid. Frequency of impulses 20 cycles/sec., duration 5 msec. Milliamperage is recorded on a digital amperemeter connected to the stimulator. Activation of the microphone by a mouse-squeak cuts off the current and the final milliamperage appears on the meter.
Five mice are used for each dose level. Each mouse serves as its own control.
Prior to the administration of test substance the animals are placed on the grid one at a time, and the pain threshold is determined by increasing the current intensity until the mouse squeaks. The pain threshold may be read on the milliamperemeter. Fifteen minutes and 30 minutes after administration of test substance the mice are tested again and the pain thresholds recorded.
Analgesic effect is present, when the pain threshold is increased over the pre-dosing value (control value). The results are stated as % increase in pain threshold calculated on the basis of the control value.
The registration can also be done as an on-line procedure. In this case the punching instruction and punching cards will be provided automatically and the results will be registered as a minimal effective dose (MED) determined after van der Waerdens X-test.

[4] = 2 h, read-out: MePh antag. ED50 2 hr i.p., mice, test substance i.p., 2 hr before methylphenidate 60 mg/kg s.c.
[5] = rats, p.o., amphetamine 10 mg/kg base i.v.
[6] = rats, p.o., strongest effect within first 6 hours, read-out: Catalep. (catalepsy wire mesh, rat, max, ED50)
[7] = read-out: MePh antag. ED50 2 hr i.p., mice, test substance i.p., 2 hr before methylphenidate 60 mg/kg s.c.

Compound | ED50 (methylphenidate; [4]) [mg/kg] | ED50 (amphetamine; [5]) [mg/kg] | Ratio catalep./Amphet. (in vivo [1]) | ED50 (in vivo [1]; [6]) [mg/kg] | LD50 (in vivo [2]; iv) [mg/kg] | MED Grid Shock [3] | ED50 (methylphenidate; [7]) [mg/kg] | ED50 (in vivo [1]; Catalep. (catalepsy wire mesh, rat, max, ED50)) [mg/kg] | ED50 (amphetamine) [mg/kg] | LD50 (in vivo [2]; ip) [mg/kg] | MePh antag. ED50 2 hr i.p. (methylphenidate; mice, test substance i.p., 2 hr before methylphenidate 60 mg/kg s.c.) [mg/kg]
CC(C)c1ccc2c(c1)C(N1CCN(CCO)CC1)CC2c1ccc(F)cc1 (stereo not shown) [Lu 18-020] | 4.4 | 9.4 | 0.8 | 7.8 | 57 | 5 | – | – | – | – | –
O=C1OCCN1CCN1CCN(C2CC(c3ccc(F)cc3)c3ccc(F)cc32)CC1 (stereo not shown) [Lu 17-039] | 9.1 | 51 | – | > 80 | 113 | – | – | – | – | – | –
CSc1ccc2c(c1)[C@H](N1CCN(C)CC1)C[C@@H]2c1ccc(F)cc1 (relative stereo) [Lu 17-056] | 20 | – | – | – | – | 5 | – | – | – | – | –
O=C(CCCN1CCN(C2CC(c3ccc(F)cc3)c3ccc(F)cc32)CC1)c1ccc(F)cc1 (stereo not shown) [Lu 17-145] | > 40 | – | – | – | – | 5 | – | – | – | – | –
OCCN1CCN([C@@H]2C[C@H](c3ccc(F)cc3)c3ccc(Cl)cc32)CC1 (relative stereo) [Lu 17-120] | 3.2 | – | – | > 20 | – | 2.5 | – | – | – | – | –
COc1ccc2c3c1O[C@H]1[C@@H](O)C=C[C@H]4[C@@H](C2)N(C)CC[C@@]341 [codeine, reference compound] | – | – | – | – | 110 | 20 | > 20 | – | – | – | –
OCCN1CCN(C2CC(c3ccc(F)cc3)c3ccc(C(F)(F)F)cc32)CC1 (stereo not shown) [Lu 18-012] | 0.03 | 0.16 | 2 | – | 56 | 0.6 | – | 0.3 | – | – | –
CN1CCN([C@@H]2C[C@@H](c3ccccc3)c3ccccc32)CC1 (relative stereo) [Lu 17-091] | > 40 | – | – | – | – | 10 | – | – | – | – | –
Cc1ccc2c(c1)C(N1CCN(CC3CC3)CC1)CC2c1ccc(F)cc1 (stereo not shown) [Lu 17-130] | 5 | > 40 | – | > 40 | – | 5 | – | – | – | – | –
CN1CCN(C2CC(c3ccc(F)cc3)c3ccc(C(F)(F)F)cc32)CC1 (stereo not shown) [Lu 18-023] | 1.1 | 0.2 | 2 | 0.4 | 94 | 1.25 | – | – | – | – | –
O=C(CCCN1CCC(O)(c2ccc(Cl)cc2)CC1)c1ccc(F)cc1 [haloperidol, reference compound] | – | – | 1.0 | 0.4 | – | < 5 | 0.04 | – | 0.4 | 226 | –
Cc1ccc2c(c1)[C@H](N1CCN(CCO)CC1)C[C@H]2c1ccc(F)cc1 (relative stereo) [Lu 17-050] | 3.4 | 9.4 | 0.8 | 7.7 | 80 | 0.63 | – | – | – | – | –
OCC(O)CN1CCN(C2CC(c3ccc(F)cc3)c3ccc(C(F)(F)F)cc32)CC1 (stereo not shown) [Lu 18-063] | 0.4 | 0.12 | 3.2 | 0.38 | 57 | 1.25 | – | – | – | – | –
CSc1ccc2c(c1)[C@H](N1CCN(C)CC1)C[C@H]2c1ccc(F)cc1 (relative stereo) [Lu 17-055] | 1.2 | 10 | 0.7 | 7.2 | 68 | 5 | – | – | – | – | –
CSc1ccc2c(c1)C(N1CCN(C(C)C)CC1)CC2c1ccc(F)cc1 (stereo not shown) [Lu 17-111] | 2.3 | 7.8 | 0.9 | 7.1 | 69 | 1.3 | – | – | – | – | –
Fc1ccc(C2CC(N3CCN(CCc4ccccc4)CC3)c3cc(F)ccc32)cc1 (stereo not shown) [Lu 18-159] | 15 | – | – | – | 40 | – | – | – | – | – | –

Compound | ED50 (methylphenidate; [4]) [mg/kg] | ED50 (amphetamine; [5]) [mg/kg] | Ratio catalep./Amphet. (in vivo [1]) | ED50 (in vivo [1]; [6]) [mg/kg] | LD50 (in vivo [2]; iv) [mg/kg] | MED Grid Shock [3] | ED50 (methylphenidate; [7]) [mg/kg] | ED50 (in vivo [1]; Catalep. (catalepsy wire mesh, rat, max, ED50)) [mg/kg] | ED50 (amphetamine) [mg/kg] | LD50 (in vivo [2]; ip) [mg/kg] | MePh antag. ED50 2 hr i.p. (methylphenidate; mice, test substance i.p., 2 hr before methylphenidate 60 mg/kg s.c.) [mg/kg]
CN(C)CCCN1c2ccccc2Sc2ccc(Cl)cc21 [chlorpromazine, reference compound] | – | – | 1.19 | 25 | 56.5 | 5 | 5.6 | – | 21 | – | –
CN1CC[C@]23c4c5ccc(O)c4O[C@H]2[C@@H](O)C=C[C@H]3[C@H]1C5 [morfine, reference compound] | – | – | – | – | – | 2.5 | – | – | – | – | > 40
Cc1ccc2c(c1)[C@H](N1CCN(C)CC1)C[C@H]2c1ccc(F)cc1 (relative stereo) [Lu 17-048] | 0.6 | 6.7 | 0.7 | 4.8 | 80 | 0.16 | – | – | – | – | –
OCCCN1CCN([C@@H]2C[C@@H](c3ccc(F)cc3)c3ccc(Cl)cc32)CC1 (relative stereo) [Lu 17-127] | 0.4 | 0.3 | 1.7 | 0.5 | 80 | 0.31 | – | – | – | – | –
Fc1ccc(C2CC(N3CCN(CC4CC4)CC3)c3cc(F)ccc32)cc1 (stereo not shown) [Lu 18-157, 1-cyclopropylmethyl-4-(3-(4'-fluorophenyl)-6-fluoro-1-indanyl)piperazine] | 5 | – | – | – | 68 | – | – | – | – | – | –
CCC(=O)O[C@](Cc1ccccc1)(c1ccccc1)[C@H](C)CN(C)C [dextropropoxyphene, reference compound] | – | – | – | – | 34 | 20 | > 20 | – | – | – | –
OCCCCN1CCN(C2CC(c3ccc(F)cc3)c3ccc(C(F)(F)F)cc32)CC1 (stereo not shown) [Lu 18-182] | 0.2 | 0.2 | – | 0.2 | 56 | – | – | – | – | – | –
CS(=O)(=O)c1ccc2c(c1)C(N1CCN(CCO)CC1)CC2c1ccc(F)cc1 (stereo not shown) [Lu 18-041] | 10 | – | – | – | > 160 | 5 | – | – | – | – | –
OCCN1CCN([C@@H]2C[C@@H](c3ccccc3)c3ccccc32)CC1 (relative stereo) [Lu 17-061] | > 40 | – | – | – | – | 10 | – | – | – | – | –
OCCN1CCN([C@@H]2C[C@H](c3ccc(F)cc3)c3ccccc32)CC1 (relative stereo) [Lu 17-124] | > 40 | – | – | – | – | 5 | – | – | – | – | –
OCC(CO)N1CCN(C2CC(c3ccc(F)cc3)c3ccc(F)cc32)CC1 (stereo not shown) [Lu 18-134, 1-(1,3-dihydroxy-2-propy)-4-(3-(4'-fluorophenyl)-6-fluoro-1-indanyl)piperazine] | 1.9 | 11.7 | 4.9 | 57 | – | < 5 | – | – | – | – | –
CN1CCN(C2CC(c3ccc(F)cc3)c3cc(F)ccc32)CC1 (stereo not shown) [Lu 17-071] | > 40 | – | – | 31 | – | 10 | – | – | – | – | –
O=C1NCCN1CCN1CCN(C2CC(c3ccc(F)cc3)c3ccc(F)cc32)CC1 (stereo not shown) [Lu 17-045] | > 40 | > 80 | – | > 80 | – | 2.5 | – | – | – | – | –
Fc1ccc(C2CC(N3CCN(CC=Cc4ccccc4)CC3)c3cc(F)ccc32)cc1 (stereo not shown) [Lu 18-162, 1-(3-phenyl-2-propenyl)-4-(3-(4'-fluorophenyl)-6-fluoro-1-indanyl)piperazine] | 29 | – | – | – | – | – | – | – | – | – | –
OCC(CO)N1CCN(C2CC(c3ccc(F)cc3)c3ccc(C(F)(F)F)cc32)CC1 (stereo not shown) [Lu 18-185] | 0.2 | 0.3 | – | 0.3 | – | – | – | – | – | – | –
OCCN1CCN([C@@H]2C[C@@H](c3ccc(F)cc3)c3cc(Cl)ccc32)CC1 (relative stereo) [Lu 17-116] | > 40 | – | – | – | – | 10 | – | – | – | – | –
